Test system: S. aureus strain ATCC 29213
Assay: Antimicrobial susceptibility test by disc diffusion method (zone of inhibition)
Format: cell-based
Conditions: microbial concentration 1 × 10^8 CFU/ml, 35-37° C., 18-20 h, NZI = No zone of inhibition; for Testing for zone of inhibition; Method of Inoculation: Swabbing: Mueller-Hinton agar plate inoculated by cotton swab; for Testing for zone of inhibition; Method of Inoculation: Apparatus, Double actuation / Testing for zone of inhibition; Method of Inoculation: Apparatus, Single actuation: Mueller-Hinton agar plate spray-inoculated with apparatus
Method: In an experiment, Mueller-Hinton Agar plates were prepared. Forty grams of Mueller-Hinton Agar (MHA) was suspended in 1 liter distilled water and then boiled to dissolve the powder completely. The medium was sterilized by autoclaving at 121° C. for 15 min. After autoclaving, the medium was cooled to 45° C. and poured 25 mL molten agar into sterile 90 mm diameter Petri dishes (petri plates) to give a depth of about 4 mm. The surface of the agar was dried to remove excess moisture before use.
The suspension density was measured by using an UV spectrophotometer. The density of the suspension was adjusted to McFarland 0.5 by addition of saline or more organisms. The number of colony forming units (CFU/ml) in the culture samples plays an important role in the incubation of the agar plates. For colony isolation, diluted microbial suspension (about 1-2×10^3 CFU/ml) can be sprayed over agar plate.
For comparison, some agar plates were inoculated by cotton swab. A sterile cotton swab was dipped into the bacterial suspension (1-2×10^8 CFU/ml) and the excess fluid removed by turning the swab against the inside of the tube to avoid over-inoculation of plates. The inoculum was spread evenly over the entire surface of the agar plate by swabbing in three directions.
Other agar plates were inoculated by using the present apparatus. The agar plates were inoculated with inoculum of bacterial suspension (1-2×10^8 CFU/ml). The bacterial suspension was filled in the reservoir of the present apparatus and then sprayed uniformly using the atomizer over an agar plate held inside the spray chamber using the atomizer.
Antimicrobial susceptibility tests of the S. aureus strain ATCC 29213 was determined by the disc diffusion method according to the recommendations and guidelines of Clinical Laboratory Standard Institutes (CLSI M100-S24; 2014). A panel of commercial antibiotic discs comprising Gentamicin (GM), Amikacin (AN), Chloramphenicol (C), Imipenem (IPM), Tetracycline (TE), Cefepime (FEP), Sulfamethoxazole/trimethoprim (SXT), Aztreonam (ATM) was used for susceptibility testing. All commercial antibiotic discs were purchased from BBL (Becton Dickinson, USA).
The predetermined panel of antimicrobial disks was applied firmly on the surface of inoculated Mueller-Hinton agar media by using a disc dispenser device.
Within 15 min of application of antimicrobial disks, the plates were inverted and incubated aerobically at 35-37° C. for 18-20 h.
After incubation, inhibition zones were read at the point where no obvious growth is detected by the unaided eye when the plate was held about 30 cm from the eye. The inhibition zone diameters were measured to the nearest millimeter with a ruler. The plates were read from the back of the plate with reflected light against a dark background. Zone diameters of antibiotics in swab inoculated plate were compared with zone diameter in apparatus-inoculated plates.

Molecule | Testing for zone of inhibition; Method of Inoculation: Swabbing | Testing for zone of inhibition; Method of Inoculation: Apparatus, Double actuation | Testing for zone of inhibition; Method of Inoculation: Apparatus, Single actuation
C[C@@H](O)[C@H]1C(=O)N2C(C(=O)O)=C(SCCN=CN)C[C@H]12 [IPM, Imipenem] | 38 mm | 38 mm | 38 mm
NCC[C@H](O)C(=O)N[C@@H]1C[C@H](N)[C@@H](O[C@H]2O[C@H](CN)[C@@H](O)[C@H](O)[C@H]2O)[C@H](O)[C@H]1O[C@H]1O[C@H](CO)[C@@H](O)[C@H](N)[C@H]1O [AN, Amikacin] | 22 mm | 23 mm | 26 mm
CO/N=C(\C(=O)N[C@@H]1C(=O)N2C(C(=O)[O-])=C(C[N+]3(C)CCCC3)CS[C@H]12)c1csc(N)n1 [FEP, Cefepime] | NZI | NZI | NZI
O=C(N[C@H](CO)[C@H](O)c1ccc([N+](=O)[O-])cc1)C(Cl)Cl [C, Chloramphenicol] | 21 mm | 22 mm | 22 mm
CN(C)[C@@H]1C(O)=C(C(N)=O)C(=O)[C@@]2(O)C(O)=C3C(=O)c4c(O)cccc4[C@@](C)(O)[C@H]3C[C@@H]12 [TE, Tetracycline] | 22 mm | 24 mm | 25 mm
Gentamicin [GM] | 21 mm | 22 mm | 22 mm
C[C@H]1[C@H](NC(=O)/C(=N\OC(C)(C)C(=O)O)c2csc(N)n2)C(=O)N1S(=O)(=O)O [ATM, Aztreonam] | NZI | NZI | NZI

— patent US10379016B1, “Apparatus for inoculating agar plate” (priority 2018, dated 2019)
